In paper PMC10132805 (Nature Communications, 2023):
Entries after “also recorded” stand apart in the source; their conditions may differ. Read-outs that look alike come from different tables or passages of the source. Residues, ends and D or L forms follow the SMILES beside them. No end group written: not given here. *: point of attachment. FITC = O=C1OC2(c3ccc(O)cc3Oc3cc(O)ccc32)c2ccc(NC(=S)*)cc21

Experiments:
Format in all cases: binding
PABPC1 PABC = PABPC1 PABC (Homo sapiens, UniProt P11940); test: biochemical
Chain of PABPC1 PABC (P11940 542-619 limits assumed): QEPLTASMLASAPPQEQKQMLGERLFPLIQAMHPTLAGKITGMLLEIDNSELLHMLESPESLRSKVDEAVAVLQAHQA

CLTC NTD = CLTC NTD (Homo sapiens, UniProt Q00610); test: biochemical
Chain of CLTC NTD (Q00610 2-479 limits assumed): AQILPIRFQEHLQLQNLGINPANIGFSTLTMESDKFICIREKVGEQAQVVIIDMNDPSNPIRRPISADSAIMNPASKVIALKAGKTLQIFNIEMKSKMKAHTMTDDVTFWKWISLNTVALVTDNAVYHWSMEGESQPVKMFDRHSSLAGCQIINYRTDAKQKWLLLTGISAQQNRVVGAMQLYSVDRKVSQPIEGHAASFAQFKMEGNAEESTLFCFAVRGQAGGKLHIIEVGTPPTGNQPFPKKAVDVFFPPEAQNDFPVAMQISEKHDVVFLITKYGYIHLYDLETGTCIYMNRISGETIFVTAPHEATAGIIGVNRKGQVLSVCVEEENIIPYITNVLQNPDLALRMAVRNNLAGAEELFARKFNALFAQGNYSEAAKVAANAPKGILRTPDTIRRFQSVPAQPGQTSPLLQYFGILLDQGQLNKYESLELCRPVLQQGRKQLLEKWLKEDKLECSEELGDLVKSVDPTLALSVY

CEP55 EABR = CEP55 EABR (Homo sapiens, UniProt Q53EZ4); test: biochemical; details: for KD: pH 7.5
Chain of CEP55 EABR (Q53EZ4 160-214 limits assumed): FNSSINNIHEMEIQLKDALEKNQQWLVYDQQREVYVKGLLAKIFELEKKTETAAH

[1] = test system: 139 human bait protein domains; details: for specificity / RiboVD_mean_counts / RiboVD_count_proportions / peptide_counts_proportion: bait YAP1 WW-2 (P46937, 228-266); for RiboVD_mean_counts: mean sequencing counts over replicate selections; for RiboVD_count_proportions: proportion of counts; for motif_found: motif benchmarking set
NEDD4 WW2 = NEDD4 WW2 (Homo sapiens, UniProt P46934); test: biochemical
Chain of NEDD4 WW2 (P46934 767-800 limits assumed): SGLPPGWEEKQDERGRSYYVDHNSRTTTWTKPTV

NEDD4 WW4 = NEDD4 WW4 (Homo sapiens, UniProt P46934); test: biochemical
Chain of NEDD4 WW4 (P46934 892-925 limits assumed): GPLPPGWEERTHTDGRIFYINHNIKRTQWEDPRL

ALIX V = ALIX V (Homo sapiens, UniProt Q8WUM4); test: biochemical
Chain of ALIX V (Q8WUM4 360-702): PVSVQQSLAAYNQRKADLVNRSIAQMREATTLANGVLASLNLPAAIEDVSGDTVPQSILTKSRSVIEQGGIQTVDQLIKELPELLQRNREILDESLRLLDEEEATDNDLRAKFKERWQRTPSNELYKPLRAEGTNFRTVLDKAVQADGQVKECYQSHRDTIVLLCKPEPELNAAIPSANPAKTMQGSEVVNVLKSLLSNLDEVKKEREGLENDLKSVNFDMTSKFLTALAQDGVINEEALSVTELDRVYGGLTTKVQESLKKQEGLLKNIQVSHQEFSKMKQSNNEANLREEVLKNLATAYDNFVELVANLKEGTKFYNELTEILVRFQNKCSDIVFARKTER

AP2M1 MHD = AP2M1 MHD (Homo sapiens, UniProt Q96CW1); test: biochemical
Chain of AP2M1 MHD (Q96CW1 170-434 limits assumed): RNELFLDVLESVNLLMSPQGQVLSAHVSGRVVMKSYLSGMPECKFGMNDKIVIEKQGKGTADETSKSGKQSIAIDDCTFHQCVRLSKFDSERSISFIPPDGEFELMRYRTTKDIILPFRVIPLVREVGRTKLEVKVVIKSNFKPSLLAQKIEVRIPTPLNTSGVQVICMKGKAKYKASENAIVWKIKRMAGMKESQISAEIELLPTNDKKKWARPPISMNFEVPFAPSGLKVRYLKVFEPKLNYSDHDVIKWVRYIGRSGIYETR

[2] = replicate 1 (first entry of cell)
[3] = replicate 2 (second entry of cell)
[4] = replicate 3 (third entry of cell)

## CC(C)C[C@H](NC(=O)CNC(=O)[C@H](C)NC(=O)[C@@H](N)CO)C(=O)N[C@@H](CC(N)=O)C(=O)N1CCC[C@H]1C(=O)N[C@@H](C)C(=O)N[C@@H](C)C(=O)N[C@H](C(=O)N1CCC[C@H]1C(=O)N[C@@H](Cc1ccccc1)C(=O)N[C@H](C(=O)N1CCC[C@H]1C(=O)N[C@@H](CCCCN)C(=O)N[C@@H](CC(N)=O)C(=O)N[C@@H](CCC(N)=O)C(=O)N[C@@H](Cc1ccc(O)cc1)C(=O)O)C(C)C)C(C)C [P/V/C 183-198 (HeV)]
PABPC1 PABC
  affinity compared to the peptide from the endogenous PABP inhibitor PAIP2_108-123: ten-fold weaker

## VPVDTNLIEFDTNYAT [ARRB2 367-382 (Human)]
CLTC NTD
  Kd: 40 µM

## CC(C)[C@H](NC(=O)[C@H](C)NC(=O)[C@@H](N)[C@@H](C)O)C(=O)N[C@@H](C)C(=O)N1CCC[C@H]1C(=O)N1CCC[C@H]1C(=O)N[C@@H](C)C(=O)N1CCC[C@H]1C(=O)N[C@H](C(=O)N[C@@H](Cc1ccc(O)cc1)C(=O)N[C@@H](CCCNC(=N)N)C(=O)N[C@@H](CO)C(=O)N[C@@H](C)C(=O)N[C@@H](CCC(=O)O)C(=O)N[C@@H](C)C(=O)N[C@@H](Cc1c[nH]cn1)C(=O)O)C(C)C [NP 602-617 (REBOV)]
CEP55 EABR
  Kd: 2.18 µM

## AELNPPPYNHSYESLH
[1]
  specificity: 0.98
  RiboVD_mean_counts: 1834
  RiboVD_count_proportions: 0.03738
[1]; [2]
  peptide_counts_proportion: 0.005
[1]; [3]
  peptide_counts_proportion: 0.079
[1]; [4]
  peptide_counts_proportion: 0.028

## MSFGSF [P03317_1835_1840]
[1]; bait G3BP2_NTF2_1_Q9UN86_1_139
  motif_found: TRUE

## C[C@H](NC(=O)[C@H](CCC(N)=O)NC(=S)Nc1ccc2c(c1)C(=O)OC21c2ccc(O)cc2Oc2cc(O)ccc21)C(=O)N[C@@H](CCC(N)=O)C(=O)NCC(=O)N1CCC[C@H]1C(=O)N1CCC[C@H]1C(=O)N[C@@H](Cc1ccc(O)cc1)C(=O)N1CCC[C@H]1C(=O)N[C@H](C(=O)N[C@@H](Cc1ccc(O)cc1)C(=O)N1CCC[C@H]1C(=O)NCC(=O)N[C@@H](Cc1ccc(O)cc1)C(=O)O)[C@@H](C)O [FITC - PDCD6IP 797-809 (Human)] ({FITC}-QAQGPPYPTYPGY-OH)
CEP55 EABR
  Kd: 0.31 µM

## C[C@H](NC(=O)[C@H](CO)NC(=O)[C@H](Cc1ccc(O)cc1)NC(=O)[C@@H]1CCCN1C(=O)[C@@H]1CCCN1C(=O)[C@@H]1CCCN1C(=O)[C@H](CO)NC(=O)[C@H](CC(=O)O)NC(=O)[C@@H](NC(=S)Nc1ccc2c(c1)C(=O)OC21c2ccc(O)cc2Oc2cc(O)ccc21)[C@@H](C)O)C(=O)NCC(=O)O [FITC - UL56 46-55 (HHV2)] ({FITC}-TDSPPPYSAG-OH)
NEDD4 WW2
  Kd: 16 µM
NEDD4 WW4
  Kd: 82 µM

## LPPPEYVPLHEISSKG
[1]
  specificity: 0.991
  RiboVD_mean_counts: 729
  RiboVD_count_proportions: 0.02141
[1]; [2]
  peptide_counts_proportion: 0.029
[1]; [3]
  peptide_counts_proportion: 0.006
[1]; [4]
  peptide_counts_proportion: 0.029

## CC(C)C[C@H](NC(=O)[C@H](CC(N)=O)NC(=O)[C@H](CO)NC(=O)[C@H](CCCCN)NC(=S)Nc1ccc2c(c1)C(=O)OC21c2ccc(O)cc2Oc2cc(O)ccc21)C(=O)N[C@@H](CC(N)=O)C(=O)N1CCC[C@H]1C(=O)N[C@@H](CC(N)=O)C(=O)N[C@@H](C)C(=O)N[C@@H](CCCCN)C(=O)N[C@@H](CCC(=O)O)C(=O)N[C@@H](Cc1ccccc1)C(=O)N[C@H](C(=O)N1CCC[C@H]1C(=O)NCC(=O)N[C@H](C(=O)N[C@@H](CCCCN)C(=O)O)C(C)C)C(C)C [FITC - PAIP2 108-123 (Human), reference compound] ({FITC}-KSNLNPNAKEFVPGVK-OH)
PABPC1 PABC
  Kd: 0.38 µM

## CC[C@H](C)[C@H](NC(=O)[C@H](CC(C)C)NC(=O)[C@H](CC(N)=O)NC(=O)[C@@H](NC(=O)[C@H](CC(=O)O)NC(=S)Nc1ccc2c(c1)C(=O)OC21c2ccc(O)cc2Oc2cc(O)ccc21)[C@@H](C)O)C(=O)N[C@@H](CCC(=O)O)C(=O)N[C@@H](Cc1ccccc1)C(=O)N[C@@H](CC(=O)O)C(=O)N[C@H](C(=O)N[C@@H](CC(N)=O)C(=O)O)[C@@H](C)O [FITC - ARRB2 370-379 (Human)] ({FITC}-DTNLIEFDTN-OH)
CLTC NTD
  Kd: 26 µM

## QAQGPPYPTYPGYPGY [PDCD6IP 797-812 (Human)]
CEP55 EABR
  Kd: ~0.3 µM
  KD: same order or tighter as the probe; also recorded: Due to the limitatons of our experimental setup we could not calculate the KD values for this peptide, however our experiments suggest very high affinity (mid to low nanomolar)

## GLRRTDLVDFVNGTVDY [RdRp 1840-1855 (SVV)]
CLTC NTD; pH 7.5
  KD: Low affinity binder

## CC(C)C[C@H](NC(=O)[C@H](CO)NC(=O)[C@@H](NC(=O)[C@H](CC(C)C)NC(=O)[C@@H]1CCCN1C(=O)[C@@H]1CCCN1C(=O)[C@H](Cc1ccc(O)cc1)NC(=O)[C@H](CC(C)C)NC(=O)[C@H](CO)NC(=S)Nc1ccc2c(c1)C(=O)OC21c2ccc(O)cc2Oc2cc(O)ccc21)[C@@H](C)O)C(=O)N[C@@H](CCCNC(=N)N)C(=O)O [FITC - gag 493-502 (HIV1)] ({FITC}-SLYPPLTSLR-OH)
ALIX V
  Kd: 2.6 µM

## NSMLNPNAVPFQPSPQY [N 2-17 (BeV)]
PABPC1 PABC
  affinity compared to the peptide from the endogenous PABP inhibitor PAIP2_108-123: ten-fold weaker

## P36328_1787_1804
[1]; bait CD2AP_SH3_1_Q9Y5K6_2_58
  motif_found: TRUE

## VDEEKGLYPNLKLTEPTAPMIHNYM [Nsp4 118-142 (BAV)]
ALIX V
  Kd: 160 µM

## PTDSNFYRALMDEEDM [EGFR 992-1007 (Human)]
AP2M1 MHD
  Kd: 2.4 µM

## MSSLYPSLEDLKVDQA [SDCBP2 1-16 (Human)]
ALIX V
  Kd: 0.29 µM

## PPPVLYPNLAELENYM [SDCBP2 39-54 (Human)]
ALIX V
  Kd: 2.1 µM

## EPDQEPPPPYQEQVPV [RNF11 31-56 (Human)]
NEDD4 WW2
  Kd: 13 µM
NEDD4 WW4
  Kd: 44 µM

## LAVGPPSLNYIPPVLQ [TEX14 792-807 (Human)]
CEP55 EABR
  Kd: ~0.3 µM
  KD: same order or tighter as the probe; also recorded: Due to the limitatons of our experimental setup we could not calculate the KD values for this peptide, however our experiments suggest very high affinity (mid to low nanomolar)

## EPDQEPPPPYQEQVPVPVYHPTPSQ [RNF11 31-65 (Human)]
NEDD4 WW2
  Kd: 15 µM
NEDD4 WW4
  Kd: 35 µM

## PVPAPRKPTPAPRTAFR [P08411_1764_1780]
[1]; bait CD2AP_SH3_1_Q9Y5K6_2_58
  motif_found: TRUE

## CC(C)C[C@H](NC(=O)[C@H](C)NC(=O)[C@@H]1CCCN1C(=O)[C@@H]1CCCN1C(=O)CNC(=O)[C@H](CO)NC(=O)[C@H](C)NC(=O)[C@@H](N)[C@@H](C)O)C(=O)N[C@@H](CCC(=O)O)C(=O)N[C@@H](Cc1c[nH]c2ccccc12)C(=O)N[C@@H](CO)C(=O)N[C@@H](C)C(=O)N[C@H](C(=O)N[C@@H](CC(N)=O)C(=O)N[C@@H](CCC(=O)O)C(=O)N[C@@H](CCCCN)C(=O)O)[C@@H](C)O [P 177-192 (RABV)]
CEP55 EABR
  Kd: 22.3 µM

## VTVPTAPPAYADIGYP
[1]
  specificity: 0.918
  RiboVD_mean_counts: 10451.3
  RiboVD_count_proportions: 0.1499
[1]; [2]
  peptide_counts_proportion: 0.298
[1]; [3]
  peptide_counts_proportion: 0.131
[1]; [4]
  peptide_counts_proportion: 0.021

## TAPPAYADIGYPMSML
[1]
  specificity: 0.889
  RiboVD_mean_counts: 4550
  RiboVD_count_proportions: 0.1419
[1]; [2]
  peptide_counts_proportion: 0.002
[1]; [3]
  peptide_counts_proportion: 0.008
[1]; [4]
  peptide_counts_proportion: 0.416

## CC[C@H](C)[C@H](NC(=O)[C@H](CC(=O)O)NC(=O)[C@H](C)NC(=O)[C@H](Cc1ccc(O)cc1)NC(=O)[C@H](C)NC(=O)[C@@H]1CCCN1C(=O)[C@@H]1CCCN1C(=O)[C@H](C)NC(=O)[C@@H](NC(=O)[C@@H]1CCCN1C(=O)[C@@H](NC(=O)[C@@H](NC(=O)[C@@H](NC(=O)[C@H](CCCNC(=N)N)NC(=O)[C@H](CCCNC(=N)N)NC(=O)[C@@H](N)CCSC)C(C)C)[C@@H](C)O)C(C)C)[C@@H](C)O)C(=O)NCC(=O)N[C@@H](Cc1ccc(O)cc1)C(=O)N1CCC[C@H]1C(=O)N[C@@H](CCSC)C(=O)O [VP40 1-20 (SEBOV)]
NEDD4 WW2
  Kd: 22 µM
NEDD4 WW4
  Kd: 68 µM
